Source: patent US12589092B2, “Polycyclic compound acting as kinase inhibitor” (HANGZHOU INNOGATE PHARMA CO., LTD., priority 2020, dated 2026)

Molecular target: TRKA (Homo sapiens, UniProt P04629)
Test: TRKA kinase activity inhibition assay (caliper mobility shift)
Type: biochemical
Details: not given
Procedure: 2) TRKA Kinase Activity Inhibition Assay
TRKA protein kinase activity was measured by caliper mobility shift assay. Compounds were dissolved in DMSO to make up 10 mM stock solutions. Prepare 1× kinase reaction buffer to serially dilute compounds. 250 nL 100× final concentration of the test compounds were transferred to destination plate 3573 by dispenser Echo 550. Prepare a 2.5× final concentration of kinase solution with 1× kinase buffer. Add 10 μL of 2.5× final kinase solution to compound wells and positive control wells; add 10 μL of 1× kinase buffer to negative control wells. Centrifuge at 1000 rpm for 30 s, shake and mix the reaction plate and incubate at room temperature for 10 min. Prepare a mixture of ATP and kinase substrate solution at 5/3× final concentration with 1× kinase buffer. The reaction was initiated by adding 15 μL of the mixed solution. Centrifuge the 384-well plate at 1000 rpm for 30 s, shake and mix well, and incubate at room temperature for the corresponding time. Add 30 μL of stop solution to stop the kinase reaction, centrifuge at 1000 rpm for 30 s, mix by shaking, and read the conversion rate data with Caliper EZ Reader. Convert conversion to inhibition data (% inhibition=(max DMSO well conversion−sample well conversion)/(max DMSO well conversion−min negative control conversion)*100). Wherein max refers to the conversion rate of the DMSO control, and min refers to the conversion rate of the non-enzymatic control. Draw a curve with the concentration and inhibition rate of the compound as abscissa and ordinate, and use XLFit excel add-in version 4.3.1 software to fit the curve and calculate IC50.

TRKA, sequence (P04629 33-796): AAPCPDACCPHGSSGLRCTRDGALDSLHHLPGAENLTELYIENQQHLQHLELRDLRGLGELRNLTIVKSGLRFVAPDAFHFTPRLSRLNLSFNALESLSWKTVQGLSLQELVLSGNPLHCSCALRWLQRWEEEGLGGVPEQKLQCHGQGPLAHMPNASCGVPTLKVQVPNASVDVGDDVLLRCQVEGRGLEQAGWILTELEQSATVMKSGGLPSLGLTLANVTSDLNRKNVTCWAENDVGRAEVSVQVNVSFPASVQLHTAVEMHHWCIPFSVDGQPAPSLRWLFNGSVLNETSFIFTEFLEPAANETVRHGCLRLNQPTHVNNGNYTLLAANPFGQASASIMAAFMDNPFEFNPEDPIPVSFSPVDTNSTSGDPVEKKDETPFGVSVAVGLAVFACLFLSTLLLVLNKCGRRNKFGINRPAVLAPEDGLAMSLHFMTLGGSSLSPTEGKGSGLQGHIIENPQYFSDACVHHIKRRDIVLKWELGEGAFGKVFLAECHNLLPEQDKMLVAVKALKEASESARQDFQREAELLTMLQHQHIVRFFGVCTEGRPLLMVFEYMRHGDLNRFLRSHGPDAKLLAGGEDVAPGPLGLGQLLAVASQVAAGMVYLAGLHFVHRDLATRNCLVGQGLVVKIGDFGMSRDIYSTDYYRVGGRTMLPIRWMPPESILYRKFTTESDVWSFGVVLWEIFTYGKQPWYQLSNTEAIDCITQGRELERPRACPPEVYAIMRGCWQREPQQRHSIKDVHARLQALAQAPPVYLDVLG

SMILES	IC50
CC(=O)c1c(C)c2cnc(Nc3ccc4c(c3)OC[C@H]3CN(C5CCN(C)CC5)CCN43)nc2n(C2CCCC2)c1=O [Compound 2R]	< 10 nM

Same assay, conditions: read-out: TRKA kinase inhibitory activity (IC50)

SMILES	IC50
CC(=O)c1c(C)c2cnc(Nc3ccc4c(c3)OC[C@@H]3CN(C5CN(C(C)=O)C5)CCN43)nc2n(C2CCCC2)c1=O [Compound 11S]	< 10 nM
CC(=O)c1c(C)c2cnc(Nc3ccc4c(c3)OC[C@@H]3CN(C5CC(F)(F)C5)CCN43)nc2n(C2CCCC2)c1=O [Compound 15S]	< 100 nM

System: not listed separately
Test: Pharmacokinetic study in rats (intragastrical administration, plasma LC-MS/MS)
Details: male, SD, rat, po, 3 mg/kg
Procedure: Instruments: XEVO TQ-S LC/MS instrument produced by Waters. All measurement data is collected and processed by Masslynx V4.1 software, and the data is calculated and processed by Microsoft Excel. Using WinNonLin 8.0 software, the statistical moment method was used to calculate the pharmacokinetic parameters. Mainly include kinetic parameters Tmax, T1/2, Cmax, AUClast etc. Column: ACQUITY UPLC BEH C18 (2.1 mm×50 mm, 1.7 μm); column temperature 40° C.; mobile phase A is water (0.1% formic acid), mobile phase B is acetonitrile, flow rate is 0.350 ml/min, gradient elution is adopted, the elution gradient is 0.50 min: 10% B; 1.50 min: 10% B; 2.30 min: 95% B; 2.31 min: 10% B; 3.00 min: stop. Injection volume: 5 μL.
Animals: 3 male SD rats with a weight range of 200-220 g. After purchase, they will be kept in the laboratory of the Experimental Animal Center for 2 days and then used. They will be fasted for 12 hours predose and 4 hours after dosing. Drinking water is free during the test. After the rats were gavage, blood samples were taken according to the established time point.
Solvent: 0.5% Methylcellulose (aqueous solution containing 0.4% Tween 80 and 1% ethanol). Preparation of the solution for intragastrical administration: accurately weigh the compound, add it to the solvent, and use ultrasound at room temperature for 5 minutes to completely dissolve the drug, and prepare a 0.3 mg/ml medicinal solution.
A single administration was also used to study the pharmacokinetics of the drug sample in rats.
After intragastrical administration, blood was taken from the orbit at 0.25, 0.5, 1, 2, 4, 9, 12 and 24 hours, and placed in a plastic centrifuge tube pretreated with sodium heparin. After centrifugation, the supernatant plasma was used for LC-MS/MS analysis.
Accurately weigh the compounds to prepare different concentrations, perform quantitative analysis on mass spectrometry to establish a standard curve, and then test the concentration of the above-mentioned compound in the plasma to obtain the compound concentration at different time points. All measurement data are collected and processed by relevant software, and the statistical moment method is used to calculate the pharmacokinetic parameters (mainly including kinetic parameters Tmax, T1/2, Cmax, AUClast etc).

SMILES	AUC(0-t)	Cmax	Tmax	half-life
CC(=O)c1c(C)c2cnc(Nc3ccc4c(c3)OC[C@@H]3CN(C5CCOCC5)CCN43)nc2n(C2CCCC2)c1=O [Compound 1S]	192 ng·h/mL	37.3 ng/mL	3 h	6.41 h
CC(=O)c1c(C)c2cnc(Nc3ccc4c(c3)OC[C@@H]3CN(C5CCN(C(C)=O)CC5)CCN43)nc2n(C2CCCC2)c1=O [Compound 5S]	2480 ng·h/mL	266 ng/mL	6 h	2.18 h
CC(=O)c1c(C)c2cnc(Nc3ccc4c(c3)OC[C@@H]3CN(C5CCN(C6CC6)CC5)CCN43)nc2n(C2CCCC2)c1=O [Compound 6S]	662 ng·h/mL	54.9 ng/mL	6.67 h	4.31 h
CC(=O)c1c(C)c2cnc(Nc3cc(F)c4c(c3)OC[C@@H]3CN(C5CCN(C)CC5)CCN43)nc2n(C2CCCC2)c1=O [Compound 9S]	697 ng·h/mL	42.5 ng/mL	12 h	15.6 h
CC(=O)c1c(C)c2cnc(Nc3ccc4c(c3)OC[C@@H]3CN(C5CN(C(C)=O)C5)CCN43)nc2n(C2CCCC2)c1=O [Compound 11S]	3000 ng·h/mL	424 ng/mL	2 h	2.61 h
CC(=O)c1c(C)c2cnc(Nc3ccc4c(c3)OC[C@@H]3CN(C5COC5)CCN43)nc2n(C2CCCC2)c1=O [Compound 13S]	860 ng·h/mL	169 ng/mL	1.83 h	1.95 h
CC(=O)c1c(C)c2cnc(Nc3ccc4c(c3)OC[C@@H]3CN(C5CN(S(C)(=O)=O)C5)CCN43)nc2n(C2CCCC2)c1=O [Compound 14S]	2030 ng·h/mL	442 ng/mL	1.33 h	1.84 h
CC(=O)c1c(C)c2cnc(Nc3ccc4c(c3)OCC3CNCCN43)nc2n(C2CCCC2)c1=O (centres unmarked) [Ref-B, reference compound]	108 ng·h/mL	13.9 ng/mL	3.33 h	6.71 h

Molecular target: CDK6/cycD3 (Homo sapiens, UniProt Q00534)
Sequence (Q00534 whole entry): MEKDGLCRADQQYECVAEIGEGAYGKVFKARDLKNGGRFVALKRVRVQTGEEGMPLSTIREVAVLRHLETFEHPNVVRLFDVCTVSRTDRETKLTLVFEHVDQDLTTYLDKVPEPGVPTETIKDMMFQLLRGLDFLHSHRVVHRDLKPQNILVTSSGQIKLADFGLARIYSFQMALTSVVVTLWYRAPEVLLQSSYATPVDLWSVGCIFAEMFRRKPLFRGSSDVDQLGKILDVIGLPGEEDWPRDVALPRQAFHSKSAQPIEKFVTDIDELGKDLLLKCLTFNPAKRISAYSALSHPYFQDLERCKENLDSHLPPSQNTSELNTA
Sequence (P30281 whole entry partner): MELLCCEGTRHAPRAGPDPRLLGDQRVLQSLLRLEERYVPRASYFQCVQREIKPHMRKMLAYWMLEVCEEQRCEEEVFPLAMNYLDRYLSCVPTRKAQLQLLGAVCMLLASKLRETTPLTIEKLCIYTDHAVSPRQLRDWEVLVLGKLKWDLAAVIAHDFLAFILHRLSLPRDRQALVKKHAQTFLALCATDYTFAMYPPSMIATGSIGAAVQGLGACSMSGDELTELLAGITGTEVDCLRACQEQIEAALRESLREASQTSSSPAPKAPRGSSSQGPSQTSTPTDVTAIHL
Test: CDK6 kinase activity inhibition assay (caliper mobility shift)
Type: biochemical
Details: CDK6/cycD3 15 nM, ATP 800 μM; read-out: CDK6 kinase inhibitory activity (IC50)
Procedure: (§1) 1) CDK2, CDK4 and CDK6 Kinase Activity Inhibition Assay
(§2) In vitro enzymatic activity of the CDK isoforms CDK2/CycA2, CDK4/CycD3 and CDK6/cycD3 were measured using caliper mobility shift assay. Dissolve the compounds in DMSO and dilute them with corresponding kinase buffer (CDK2/CycA2 and CDK6/CycD3 were assayed with buffer conditions of 50 mM HEPES (pH 7.5), 10 mM MgCl2, 0.0015% Brij-35 and 2 mM dithiothreitol; CDK4/CycD3 was assayed with buffer condition of 20 mM HEPES (pH 7.5), 10 mM MgCl2, 0.01% Triton X-100 and 2 mM dithiothreitol). Add 5 μl of compound (10% DMSO) with 5 times the final concentration of the reaction to a 384-well plate. […] Collect conversion data on Caliper EZ Reader II (Caliper Life Sciences). Convert the conversion rate into inhibition rate data (% inhibition rate=(max−conversion rate)/(max−min)*100). […] Draw a curve with the concentration and inhibition rate of the compound as abscissa and ordinate, and use XLFit excel add-in version 4.3.1 software to fit the curve and calculate IC50.

SMILES	IC50
CC(=O)c1c(C)c2cnc(Nc3ccc4c(c3)OC[C@@H]3CN(C5CCOCC5)CCN43)nc2n(C2CCCC2)c1=O [Compound 1S]	< 20 nM
CC(=O)c1c(C)c2cnc(Nc3ccc4c(c3)OC[C@H]3CN(C5CCN(C)CC5)CCN43)nc2n(C2CCCC2)c1=O [Compound 2R]	< 10 nM
CC(=O)c1c(C)c2cnc(Nc3ccc4c(c3)OC[C@H]3CN(C5CCNCC5)CCN43)nc2n(C2CCCC2)c1=O [Compound 3R]	< 10 nM
CC(=O)c1c(C)c2cnc(Nc3ccc4c(c3)OC[C@@H]3CN(C5CCN(C(C)=O)CC5)CCN43)nc2n(C2CCCC2)c1=O [Compound 5S]	< 10 nM
CC(=O)c1c(C)c2cnc(Nc3ccc4c(c3)OC[C@@H]3CN(C5CCN(C6CC6)CC5)CCN43)nc2n(C2CCCC2)c1=O [Compound 6S]	< 10 nM
CC(=O)c1c(C)c2cnc(Nc3cc(C)c4c(c3)OC[C@@H]3CN(C5CCN(C)CC5)CCN43)nc2n(C2CCCC2)c1=O [Compound 8S]	< 100 nM
CC(=O)c1c(C)c2cnc(Nc3cc(F)c4c(c3)OC[C@@H]3CN(C5CCN(C)CC5)CCN43)nc2n(C2CCCC2)c1=O [Compound 9S]	< 50 nM
CC(=O)c1c(C)c2cnc(Nc3ccc4c(c3)OC[C@@H]3CN(C5CN(C(C)=O)C5)CCN43)nc2n(C2CCCC2)c1=O [Compound 11S]	< 20 nM
CC(=O)c1c(C)c2cnc(Nc3ccc4c(c3)OC[C@@H]3CN(C5CN(C6CC6)C5)CCN43)nc2n(C2CCCC2)c1=O [Compound 12S]	< 10 nM
CC(=O)c1c(C)c2cnc(Nc3ccc4c(c3)OC[C@@H]3CN(C5COC5)CCN43)nc2n(C2CCCC2)c1=O [Compound 13S]	< 20 nM
CC(=O)c1c(C)c2cnc(Nc3ccc4c(c3)OC[C@@H]3CN(C5CN(S(C)(=O)=O)C5)CCN43)nc2n(C2CCCC2)c1=O [Compound 14S]	< 20 nM

Molecular target: CDK2/CycA2 (Homo sapiens, UniProt P24941)
Test: CDK2 kinase activity inhibition assay (caliper mobility shift)
Type: biochemical
Details: CDK2/CycA2 12 nM, ATP 39 μM; read-out: CDK2 kinase inhibitory activity (IC50)
Procedure: as §1, §2

SMILES	IC50
CC(=O)c1c(C)c2cnc(Nc3ccc4c(c3)OC[C@@H]3CN(C5CCOCC5)CCN43)nc2n(C2CCCC2)c1=O [Compound 1S]	< 100 nM
CC(=O)c1c(C)c2cnc(Nc3ccc4c(c3)OC[C@H]3CN(C5CCN(C)CC5)CCN43)nc2n(C2CCCC2)c1=O [Compound 2R]	< 100 nM
CC(=O)c1c(C)c2cnc(Nc3ccc4c(c3)OC[C@H]3CN(C5CCNCC5)CCN43)nc2n(C2CCCC2)c1=O [Compound 3R]	< 100 nM
CC(=O)c1c(C)c2cnc(Nc3ccc4c(c3)OC[C@@H]3CN(C5CCN(C(C)=O)CC5)CCN43)nc2n(C2CCCC2)c1=O [Compound 5S]	< 100 nM
CC(=O)c1c(C)c2cnc(Nc3ccc4c(c3)OC[C@@H]3CN(C5CCN(C6CC6)CC5)CCN43)nc2n(C2CCCC2)c1=O [Compound 6S]	< 100 nM
CC(=O)c1c(C)c2cnc(Nc3cc(C)c4c(c3)OC[C@@H]3CN(C5CCN(C)CC5)CCN43)nc2n(C2CCCC2)c1=O [Compound 8S]	< 500 nM
CC(=O)c1c(C)c2cnc(Nc3cc(F)c4c(c3)OC[C@@H]3CN(C5CCN(C)CC5)CCN43)nc2n(C2CCCC2)c1=O [Compound 9S]	< 500 nM
CC(=O)c1c(C)c2cnc(Nc3ccc4c(c3)OC[C@@H]3CN(C5CN(C(C)=O)C5)CCN43)nc2n(C2CCCC2)c1=O [Compound 11S]	< 100 nM
CC(=O)c1c(C)c2cnc(Nc3ccc4c(c3)OC[C@@H]3CN(C5CN(C6CC6)C5)CCN43)nc2n(C2CCCC2)c1=O [Compound 12S]	< 100 nM
CC(=O)c1c(C)c2cnc(Nc3ccc4c(c3)OC[C@@H]3CN(C5COC5)CCN43)nc2n(C2CCCC2)c1=O [Compound 13S]	< 100 nM
CC(=O)c1c(C)c2cnc(Nc3ccc4c(c3)OC[C@@H]3CN(C5CN(S(C)(=O)=O)C5)CCN43)nc2n(C2CCCC2)c1=O [Compound 14S]	< 100 nM
CC(=O)c1c(C)c2cnc(Nc3ccc4c(c3)OC[C@@H]3CN(C5CC(F)(F)C5)CCN43)nc2n(C2CCCC2)c1=O [Compound 15S]	< 1000 nM
CC(=O)c1c(C)c2cnc(Nc3ccc4c(c3)OC[C@@H]3CN(C5CCN(CC(F)(F)F)CC5)CCN43)nc2n(C2CCCC2)c1=O [Compound 16S]	< 500 nM
CC(=O)c1c(C)c2cnc(Nc3ccc4c(c3)OC[C@@H]3CN(C5CCN(CC#N)CC5)CCN43)nc2n(C2CCCC2)c1=O [Compound 17S]	< 100 nM
CC(=O)c1c(C)c2cnc(Nc3ccc4c(c3)OC[C@@H]3CN(C5CCC5)CCN43)nc2n(C2CCCC2)c1=O [Compound 18S]	< 500 nM
CC(=O)c1c(C)c2cnc(Nc3ccc4c(c3)N3CCN(C5CCN(C)CC5)C[C@H]3CO4)nc2n(C2CCCC2)c1=O [Compound 19S]	< 500 nM
CC(=O)c1c(C)c2cnc(Nc3ccc4c(c3)N3CCN(C5CCNCC5)C[C@H]3CO4)nc2n(C2CCCC2)c1=O [Compound 20S]	< 500 nM
CC(=O)c1c(C)c2cnc(Nc3ccc4c(c3)N3CCN(C5CCN(C(C)=O)CC5)C[C@H]3CO4)nc2n(C2CCCC2)c1=O [Compound 21S]	< 500 nM

Molecular target: CDK4/CycD3 (Homo sapiens, UniProt P11802)
Sequence (P11802 whole entry): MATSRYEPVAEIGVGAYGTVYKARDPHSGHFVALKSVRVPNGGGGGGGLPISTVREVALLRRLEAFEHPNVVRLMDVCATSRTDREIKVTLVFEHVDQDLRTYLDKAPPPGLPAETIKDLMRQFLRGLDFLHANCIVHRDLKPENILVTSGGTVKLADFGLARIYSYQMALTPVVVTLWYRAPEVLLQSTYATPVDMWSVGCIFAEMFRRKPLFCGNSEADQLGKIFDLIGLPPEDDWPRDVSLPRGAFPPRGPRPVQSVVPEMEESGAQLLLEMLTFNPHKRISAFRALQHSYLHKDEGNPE
Sequence (P30281 whole entry partner): as the sequence (P30281 whole entry partner) above
Test: CDK4 kinase activity inhibition assay (caliper mobility shift)
Type: biochemical
Details: CDK4/CycD3 10 nM, ATP 221 μM; read-out: CDK4 kinase inhibitory activity (IC50)
Procedure: as §1, §2

SMILES	IC50
CC(=O)c1c(C)c2cnc(Nc3ccc4c(c3)OC[C@@H]3CN(C5CCOCC5)CCN43)nc2n(C2CCCC2)c1=O [Compound 1S]	< 10 nM
CC(=O)c1c(C)c2cnc(Nc3ccc4c(c3)OC[C@H]3CN(C5CCN(C)CC5)CCN43)nc2n(C2CCCC2)c1=O [Compound 2R]	< 10 nM
CC(=O)c1c(C)c2cnc(Nc3ccc4c(c3)OC[C@H]3CN(C5CCNCC5)CCN43)nc2n(C2CCCC2)c1=O [Compound 3R]	< 10 nM
CC(=O)c1c(C)c2cnc(Nc3ccc4c(c3)OC[C@@H]3CN(C5CCN(C(C)=O)CC5)CCN43)nc2n(C2CCCC2)c1=O [Compound 5S]	< 10 nM
CC(=O)c1c(C)c2cnc(Nc3ccc4c(c3)OC[C@@H]3CN(C5CCN(C6CC6)CC5)CCN43)nc2n(C2CCCC2)c1=O [Compound 6S]	< 10 nM
CC(=O)c1c(C)c2cnc(Nc3cc(C)c4c(c3)OC[C@@H]3CN(C5CCN(C)CC5)CCN43)nc2n(C2CCCC2)c1=O [Compound 8S]	< 20 nM
CC(=O)c1c(C)c2cnc(Nc3cc(F)c4c(c3)OC[C@@H]3CN(C5CCN(C)CC5)CCN43)nc2n(C2CCCC2)c1=O [Compound 9S]	< 10 nM
CC(=O)c1c(C)c2cnc(Nc3ccc4c(c3)OC[C@@H]3CN(C5CN(C(C)=O)C5)CCN43)nc2n(C2CCCC2)c1=O [Compound 11S]	< 10 nM
CC(=O)c1c(C)c2cnc(Nc3ccc4c(c3)OC[C@@H]3CN(C5CN(C6CC6)C5)CCN43)nc2n(C2CCCC2)c1=O [Compound 12S]	< 10 nM
CC(=O)c1c(C)c2cnc(Nc3ccc4c(c3)OC[C@@H]3CN(C5COC5)CCN43)nc2n(C2CCCC2)c1=O [Compound 13S]	< 10 nM
CC(=O)c1c(C)c2cnc(Nc3ccc4c(c3)OC[C@@H]3CN(C5CN(S(C)(=O)=O)C5)CCN43)nc2n(C2CCCC2)c1=O [Compound 14S]	< 10 nM
CC(=O)c1c(C)c2cnc(Nc3ccc4c(c3)OC[C@@H]3CN(C5CC(F)(F)C5)CCN43)nc2n(C2CCCC2)c1=O [Compound 15S]	< 50 nM
CC(=O)c1c(C)c2cnc(Nc3ccc4c(c3)OC[C@@H]3CN(C5CCN(CC(F)(F)F)CC5)CCN43)nc2n(C2CCCC2)c1=O [Compound 16S]	< 10 nM
CC(=O)c1c(C)c2cnc(Nc3ccc4c(c3)OC[C@@H]3CN(C5CCN(CC#N)CC5)CCN43)nc2n(C2CCCC2)c1=O [Compound 17S]	< 10 nM
CC(=O)c1c(C)c2cnc(Nc3ccc4c(c3)OC[C@@H]3CN(C5CCC5)CCN43)nc2n(C2CCCC2)c1=O [Compound 18S]	< 10 nM
CC(=O)c1c(C)c2cnc(Nc3ccc4c(c3)N3CCN(C5CCN(C)CC5)C[C@H]3CO4)nc2n(C2CCCC2)c1=O [Compound 19S]	< 100 nM
